Blank lines part the entries; values can stand above or below the molecule they belong to.
What was measured:
[1] = system: H1299 cells; assay: in vitro antiproliferation assay, H1299 (lung); assay type: cell-based
Procedure, shortened: (§1)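 IC50 values came from standard antiproliferation testing in cultured tumour cells; the A549 and H1299 lines are of lung origin.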

[2] = system: A549 cells; assay: in vitro antiproliferation assay, A549 (lung); assay type: cell-based
Procedure, shortened: as §1

[3] = H1299 (lung) cells, antiproliferation
[4] = A549 (lung) cells, antiproliferation
[5] = IC50 class against H1299 (lung) tumor cells
[6] = IC50 class against A549 (lung) tumor cells
[7] = Homo sapiens, NCI-H1299, IC50 class against H1299 (lung) tumor cells
[8] = Homo sapiens, IC50 class against A549 (lung) tumor cells

SMILES: CCOC(=O)COc1cccc(Nc2ncc(F)c(Nc3cc(C)c(O)c(Cl)c3)n2)c1 [compound 952]
IC50 [1, 3]: ≤ 20 µM
IC50 [2, 4]: > 20 µM

SMILES: CC(C)c1cccc(Nc2ncc(F)c(Nc3cccc(C(C)C)c3)n2)c1 [compound 968]
IC50 [1, 3]: ≤ 20 µM
IC50 [2, 4]: > 20 µM

SMILES: CNC(=O)COc1cccc(Nc2ncc(F)c(Nc3cccc(CN)c3)n2)c1 [compound 970]
IC50 [1, 3]: ≤ 20 µM
IC50 [2, 4]: ≤ 20 µM

SMILES: O=C(COc1cccc(Nc2ncc(F)c(Nc3ccc(N4CCOCC4)cc3)n2)c1)NC1CC1 [compound 988]
IC50 [1, 3]: ≤ 20 µM
IC50 [2, 4]: ≤ 20 µM

SMILES: COC(=O)COc1cccc(Nc2ncc(F)c(Nc3ccc(N4CCOCC4)cc3)n2)c1 [compound 989]
IC50 [1, 3]: ≤ 20 µM
IC50 [2, 4]: ≤ 20 µM

SMILES: O=C(COc1cccc(Nc2ncc(F)c(Nc3ccc(N4CCOCC4)cc3)n2)c1)NC1CCC1 [compound 990]
IC50 [1, 3]: ≤ 20 µM
IC50 [2, 4]: ≤ 20 µM

SMILES: CNC(=O)COc1cccc(Nc2ncc(F)c(Nc3ccc(N4CCOCC4)cc3)n2)c1 [compound 992]
IC50 [1, 3]: > 20 µM
IC50 [2, 4]: > 20 µM

SMILES: CNC(=O)COc1cccc(Nc2ncc(F)c(Nc3ccc(N4CCN(C(=O)OC)CC4)cc3)n2)c1 [compound 993]
IC50 [1, 3]: ≤ 20 µM
IC50 [2, 4]: ≤ 20 µM

SMILES: Fc1cnc(Nc2cccc(-c3ncco3)c2)nc1Nc1cccc(-c2ncco2)c1 [compound 995]
IC50 [1, 3]: ≤ 20 µM
IC50 [2, 4]: ≤ 20 µM

SMILES: O=C(COc1cccc(Nc2ncc(F)c(Nc3cc(Cl)c(O)c(Cl)c3)n2)c1)N1CCNCC1 [compound 1001]
IC50 [1, 3]: > 20 µM
IC50 [2, 4]: > 20 µM

SMILES: CC(C)(C)OC(=O)NCc1ccc(Nc2ncc(F)c(Nc3ccc(CNC(=O)OC(C)(C)C)cc3)n2)cc1 [compound 1012]
IC50 [1, 3]: ≤ 20 µM
IC50 [2, 4]: ≤ 20 µM

SMILES: NCc1ccc(Nc2ncc(F)c(Nc3ccc(CN)cc3)n2)cc1 [compound 1013]
IC50 [1, 3]: ≤ 20 µM
IC50 [2, 4]: ≤ 20 µM

SMILES: CC(C)(C)OC(=O)NCc1cccc(Nc2ncc(F)c(Nc3cccc(CNC(=O)OC(C)(C)C)c3)n2)c1 [compound 1015]
IC50 [1, 3]: ≤ 20 µM
IC50 [2, 4]: ≤ 20 µM

SMILES: NC(=O)c1ccc(Nc2ncc(F)c(Nc3ccc(C(N)=O)cc3)n2)cc1 [compound 1029]
IC50 [1, 3]: > 20 µM
IC50 [2, 4]: > 20 µM

SMILES: CCN(CC)CCNC(=O)c1ccc(Nc2ncc(F)c(N(C)c3ccc(Cl)c(Cl)c3)n2)cc1 [compound 1031]
IC50 [1, 3]: ≤ 20 µM
IC50 [2, 4]: ≤ 20 µM

SMILES: CNc1ncc(F)c(N(C)c2ccc3c(c2)OCCO3)n1 [compound 1038]
IC50 [1, 5]: ≤ 20 µM
IC50 [2, 6]: ≤ 20 µM

SMILES: CN(C)c1ncc(F)c(N(C)c2ccc3c(c2)OCCO3)n1 [compound 1039]
IC50 [1, 5]: ≤ 20 µM
IC50 [2, 6]: ≤ 20 µM

SMILES: CN(c1ccc2c(c1)OCCO2)c1nc(NCCO)ncc1F [compound 1040]
IC50 [1, 5]: ≤ 20 µM
IC50 [2, 6]: ≤ 20 µM

SMILES: CC(C)Nc1ncc(F)c(N(C)c2ccc3c(c2)OCCO3)n1 [compound 1041]
IC50 [1, 5]: ≤ 20 µM
IC50 [2, 6]: ≤ 20 µM

SMILES: CN(c1ccc2c(c1)OCCO2)c1nc(N(CCO)CCO)ncc1F [compound 1042]
IC50 [1, 5]: ≤ 20 µM
IC50 [2, 6]: > 20 µM

SMILES: C=CCNc1ncc(F)c(N(C)c2ccc3c(c2)OCCO3)n1 [compound 1043]
IC50 [1, 5]: ≤ 20 µM
IC50 [2, 6]: ≤ 20 µM

SMILES: CNc1ncc(F)c(Nc2ccc3c(c2)OCCO3)n1 [compound 1044]
IC50 [1, 5]: > 20 µM
IC50 [2, 6]: > 20 µM

SMILES: COc1ccc(Nc2ncc(F)c(Nc3ccc4c(c3)OCCO4)n2)c(C)c1 [compound 1046]
IC50 [1, 5]: ≤ 20 µM
IC50 [2, 6]: ≤ 20 µM

SMILES: COc1ccc(C)c(Nc2ncc(F)c(Nc3ccc4c(c3)OCCO4)n2)c1 [compound 1047]
IC50 [1, 5]: ≤ 20 µM
IC50 [2, 6]: ≤ 20 µM

SMILES: Cc1ccc(F)c(Nc2ncc(F)c(Nc3ccc4c(c3)OCCO4)n2)c1 [compound 1048]
IC50 [1, 5]: ≤ 20 µM
IC50 [2, 6]: ≤ 20 µM

SMILES: COc1cc(Nc2ncc(F)c(Nc3ccc4c(c3)OCCO4)n2)c(OC)cc1Cl [compound 1049]
IC50 [1, 5]: ≤ 20 µM
IC50 [2, 6]: ≤ 20 µM

SMILES: COc1c(C)cc(Nc2ncc(F)c(Nc3cccc(Nc4ncc[nH]4)c3)n2)cc1C [compound 1050]
IC50 [1, 7]: ≤ 20 µM
IC50 [2, 8]: ≤ 20 µM

SMILES: Cc1cc(C)cc(Nc2ncc(F)c(Nc3cccc(Nc4ncc[nH]4)c3)n2)c1 [compound 1052]
IC50 [1, 7]: ≤ 20 µM
IC50 [2, 8]: ≤ 20 µM

SMILES: COc1cc(Nc2ncc(F)c(Nc3cccc(Nc4ncc[nH]4)c3)n2)cc(OC)c1 [compound 1053]
IC50 [1, 7]: ≤ 20 µM
IC50 [2, 8]: ≤ 20 µM

SMILES: Fc1cnc(Nc2cccc(N3CCOCC3)c2)nc1Nc1cccc(Nc2ncc[nH]2)c1 [compound 1054]
IC50 [1, 7]: ≤ 20 µM
IC50 [2, 8]: ≤ 20 µM

SMILES: CCOC(=O)N1CCN(c2cccc(Nc3ncc(F)c(Nc4cccc(Nc5ncc[nH]5)c4)n3)c2)CC1 [compound 1055]
IC50 [1, 7]: > 20 µM
IC50 [2, 8]: > 20 µM

SMILES: CN1CCN(c2ccc(Nc3ncc(F)c(Nc4cccc(Nc5ncc[nH]5)c4)n3)cc2)CC1 [compound 1056]
IC50 [1, 7]: > 20 µM
IC50 [2, 8]: > 20 µM

SMILES: COC(=O)N1CCN(c2ccc(Nc3ncc(F)c(Nc4cccc(Nc5ncc[nH]5)c4)n3)cc2)CC1 [compound 1057]
IC50 [1, 7]: > 20 µM
IC50 [2, 8]: > 20 µM

SMILES: CC(=O)N1CCN(c2ccc(Nc3ncc(F)c(Nc4cccc(Nc5ncc[nH]5)c4)n3)cc2)CC1 [compound 1058]
IC50 [1, 7]: > 20 µM
IC50 [2, 8]: > 20 µM

SMILES: CC(=O)N1CCN(c2cccc(Nc3ncc(F)c(Nc4cccc(Nc5ncc[nH]5)c4)n3)c2)CC1 [compound 1059]
IC50 [1, 7]: > 20 µM
IC50 [2, 8]: > 20 µM

SMILES: COc1cccc(Nc2ncc(F)c(Nc3ccc4c(c3)NC(=O)CO4)n2)c1C [compound 1062]
IC50 ([1]; H1299 (lung) cells): ≤ 20 µM
IC50 ([2]; A549 (lung) cells): ≤ 20 µM

SMILES: Cc1c(O)cccc1Nc1ncc(F)c(Nc2ccc3c(c2)NC(=O)CO3)n1 [compound 1063]
IC50 ([1]; H1299 (lung) cells): ≤ 20 µM
IC50 ([2]; A549 (lung) cells): ≤ 20 µM

SMILES: Cc1c(O)cccc1Nc1ncc(F)c(Nc2ccc3c(c2)NC(=O)C(C)(C)O3)n1 [compound 1064]
IC50 ([1]; H1299 (lung) cells): ≤ 20 µM
IC50 ([2]; A549 (lung) cells): ≤ 20 µM

SMILES: COc1cccc(Nc2ncc(F)c(Nc3ccc4c(c3)NC(=O)C(C)(C)O4)n2)c1C [compound 1065]
IC50 ([1]; H1299 (lung) cells): > 20 µM
IC50 ([2]; A549 (lung) cells): ≤ 20 µM

Results, then the molecule that gave them:

IC50 [1, 3]: ≤ 20 µM
IC50 [2, 4]: ≤ 20 µM
SMILES: COc1ccc(Nc2ncc(F)c(Nc3cccc(O)c3)n2)cc1OC [compound 969]

IC50 [1, 3]: ≤ 20 µM
IC50 [2, 4]: ≤ 20 µM
SMILES: NC(=O)COc1ccc(Nc2nc(Nc3cccc(O)c3)ncc2F)cc1 [compound 974]

IC50 [1, 3]: > 20 µM
IC50 [2, 4]: > 20 µM
SMILES: CCOC(=O)COc1cccc(Nc2ncc(F)c(Nc3cc(Cl)c(O)c(Cl)c3)n2)c1 [compound 999]

IC50 [1, 3]: ≤ 20 µM
IC50 [2, 4]: ≤ 20 µM
SMILES: CCN(CC)CCNC(=O)c1ccc(Nc2ncc(F)c(Nc3ccc(OC)c(Cl)c3)n2)cc1 [compound 1021]

IC50 [1, 3]: ≤ 20 µM
IC50 [2, 4]: ≤ 20 µM
SMILES: COc1ccc(Nc2nc(Nc3ccc(C(N)=O)cc3)ncc2F)cc1Cl [compound 1022]

IC50 [1, 3]: ≤ 20 µM
IC50 [2, 4]: ≤ 20 µM
SMILES: COc1ccc(Nc2nc(Nc3ccc(CNC(=O)OC(C)(C)C)cc3)ncc2F)cc1Cl [compound 1023]

IC50 [1, 3]: ≤ 20 µM
IC50 [2, 4]: > 20 µM
SMILES: CNC(=O)COc1ccc(Nc2ncc(F)c(Nc3ccc(OC)c(Cl)c3)n2)cc1 [compound 1025]

IC50 [1, 3]: ≤ 20 µM
IC50 [2, 4]: > 20 µM
SMILES: NC(=O)c1ccc(Nc2nc(Nc3cccc(O)c3)ncc2F)cc1 [compound 1026]

IC50 [1, 3]: ≤ 20 µM
IC50 [2, 4]: ≤ 20 µM
SMILES: NC(=O)c1ccc(Nc2nc(Nc3cc(Cl)c(O)c(Cl)c3)ncc2F)cc1 [compound 1027]

IC50 [1, 3]: ≤ 20 µM
IC50 [2, 4]: ≤ 20 µM
SMILES: COc1ccc(Nc2ncc(F)c(Nc3ccc(C(N)=O)cc3)n2)cc1Cl [compound 1028]

IC50 [1, 3]: ≤ 20 µM
IC50 [2, 4]: ≤ 20 µM
SMILES: CN(c1ccc(Cl)c(Cl)c1)c1nc(Nc2ccc(C(N)=O)cc2)ncc1F [compound 1030]

IC50 [1, 3]: > 20 µM
IC50 [2, 4]: > 20 µM
SMILES: COc1cc(Nc2nc(Nc3ccc(C(N)=O)cc3)ncc2F)ccc1Cl [compound 1032]

IC50 [1, 3]: ≤ 20 µM
IC50 [2, 4]: ≤ 20 µM
SMILES: COc1ccc(Nc2nc(Nc3ccc(C(N)=O)c(Cl)c3)ncc2F)cc1Cl [compound 1033]

IC50 [1, 3]: ≤ 20 µM
IC50 [2, 4]: > 20 µM
SMILES: COc1cc(Nc2nc(Nc3ccc(C(N)=O)c(Cl)c3)ncc2F)ccc1Cl [compound 1034]

IC50 [1, 3]: ≤ 20 µM
IC50 [2, 4]: ≤ 20 µM
SMILES: CCN(CC)CCNC(=O)c1ccc(Nc2ncc(F)c(Nc3ccc(Cl)c(OC)c3)n2)cc1 [compound 1035]

IC50 [1, 3]: ≤ 20 µM
IC50 [2, 4]: ≤ 20 µM
SMILES: NC(=O)c1ccc(Nc2ncc(F)c(Nc3ccccc3)n2)cc1 [compound 1036]

IC50 [1, 7]: ≤ 20 µM
IC50 [2, 8]: ≤ 20 µM
SMILES: COc1ccc(Nc2ncc(F)c(Nc3cccc(Nc4ncc[nH]4)c3)n2)cc1F [compound 1051]

IC50 ([1]; H1299 (lung) cells): ≤ 20 µM
IC50 ([2]; A549 (lung) cells): ≤ 20 µM
SMILES: CCCn1ncc2cc(Nc3ncc(F)c(Nc4ccc(OC)c(Cl)c4)n3)ccc21 [compound 1074]
